Tests used:
Rat pharmacokinetics [1] = format: in vivo; conditions: male Sprague-Dawley rats, plasma, route not stated in table (IV or oral gavage 10 mL/kg of 0.3 or 0.6 mg/mL)
Rat pharmacokinetics [2] = format: in vivo; design: AUC: concentration or dose not given beside the values; conditions: male Sprague-Dawley rats, plasma, route not given; for half-life: read-out: Rat T1/2 (converted)
Experimental: Intravenous dosing: Compounds were formulated at 0.5 mg/mL in a solution comprising 5% polyethylene glycol 400 and 95% (12% (w/v) sulfobutyl-β-cyclodextrin in water) (v/v). Formulated compounds were sterile filtered through a 0.22 micron filter before dosing. Compounds were administered to male, 7-11-week-old Sprague-Dawley rats by jugular vein cannula infusion over 30 minutes at a dose of 1 mg/kg. […]
Sample collection: Blood collections of about 0.2 mL per time point were performed from jugular vein or other suitable site of each animal, into pre-chilled commercial EDTA-K2 tubes and placed on wet ice until centrifugation. Blood samples were processed for plasma by centrifugation at approximately 4° C., 3,200 g for 10 min. Plasma was collected and transferred into pre-labeled 96 well plate or polypropylene tubes, quick frozen over dry ice and kept at −60° C. or lower until LC-MS/MS analysis.
Data analysis: Plasma concentration versus time data was plotted in graph and analyzed by non-compartmental approaches using the Phoenix WinNonlin 6.3 software program. Related PK parameters were calculated according to dosing route, e.g., CL, Vdss and C0 for intravenous administration, Cmax, Tmax or % F for extravascular administration, and T1/2, AUC(0-t), AUC(0-inf), MRT(0-t), MRT(0-inf) for all routes.

[3] = Metabolic stability in hepatocytes; format: in vitro ADME; conditions: cryopreserved human hepatocytes (suspension), 1×10^6 cells/mL; for half-life at 1 μM: 0-240 min, read-out: hHep t1/2; for CLint scaled at 1 μM: intrinsic clearance, read-out: hHep CLint
Experimental: Test compounds are incubated in human hepatocytes and stability is assessed from the substrate […] approach. Test compounds are dissolved in dimethyl sulfoxide (DMSO) to create a 10 mM Stock, and then further diluted to create a 1000× Working Stock of 1 mM with DMSO in 96-well plates for test compounds and the positive control (midazolam). Vials containing cryopreserved hepatocytes are removed from the liquid nitrogen tank and immediately immersed in a 37° C. water bath. The vials are shaken gently until the contents had thawed and were then immediately emptied into 48 mL of pre-warmed HT Medium in a 50 mL conical tube. Cells remaining in the vial are resuspended with 1.0 mL of pre-warmed HT Medium and added to the conical tube. The tube is capped and then gently inverted several times to resuspend the hepatocytes. The cell suspension is centrifuged at 50×g at room temperature for 5 minutes and the supernatant discarded. The cell pellet is loosened by gently swirling the centrifuge tube and is re-suspended in 4 mL of warm Dulbecco's Modified Eagle medium (DMEM). Cell density is determined by a cell counter by Nexcelom, and DMEM medium is added to obtain a target density of 1×10^6 cells/mL. The assay is carried out in 96-well microtiter plates. Test Compounds are incubated at 1 μM with 1×10^6 cells/mL hepatocytes in DMEM for 0, 30, 60, 120 and 240 minutes. The incubation is carried out with gentle shaking at 37° C. under a humid atmosphere of 95% air/5% CO2. The volume of the incubation mixture is 37 μL with a final 0.1% DMSO. At each of the time points, the incubation is stopped by adding 150 μL quenching solution (100% acetonitrile, 0.1% formic acid containing bucetin as an internal standard for positive ESI mode). Subsequently, the mixtures are vortexed for 20 min and centrifuged at 4,000 RPM at 10° C. The supernatant (80 μL) is transferred to a clean 96-well plate and analyzed by LC-MS/MS. Midazolam at 1 μM with a final 0.1% DMSO is included as a positive control to verify assay performance. The percent parent remaining, intrinsic and predicted hepatic clearance and t1/2 are calculated. All samples are analyzed by LC-MS/MS using an AB Sciex API 4000 instrument, coupled to a Shimadzu LC-20AD LC Pump system. Separation is achieved using a Waters Atlantis T3 dC18 reverse phase HPLC column (20 mm×2.1 mm) at a flow rate of 0.5 mL/min. The mobile phase consisted of 0.1% formic acid in water (solvent A) and 0.1% formic acid in 100% acetonitrile (solvent B). Elution conditions are detailed below.
The ion optics of each test compound are optimized for their declustering potential (DP), […] (CE), collision-cell exit potential (CXP) and used in a selected ion monitoring experiment in the positive ion mode. The peak area ratio of each test compound to internal standard is then evaluated for stability. The extent of metabolism is calculated based on the disappearance of the test compound, compared to its initial concentration. The initial rates of clearance of the test compound are calculated using the linear regression plot of semi-log % remaining of the compound versus time. The elimination rate constant (k) of the linear regression plot is then used to determine t1/2 and the intrinsic clearance (CLint) using the following formula, where Chepatocyte (million cells/mL) is the cell density of the incubation: k=−slope t1/2=0.693/k CLint=k/Chepatocyte
Test compounds were incubated in human hepatocytes and stability was assessed from the substrate […] approach. Test compounds were dissolved in dimethyl sulfoxide (DMSO) to create a 10 mM Stock, and then further diluted to create a 1000× Working Stock of 1 mM with DMSO in 96-well plates for test compounds and the positive control (midazolam). Vials containing cryopreserved hepatocytes were removed from the liquid nitrogen tank and immediately immersed in a 37° C. water bath. […]

SMILES | Cmax (Rat pharmacokinetics [1]) [ng/mL] | AUC (Rat pharmacokinetics [2]) [ng·h/mL] | half-life (Rat pharmacokinetics [2]) [h] | half-life at 1 μM [3] [h] | CLint scaled at 1 μM [3] [mL/min/kg]
N#Cc1ccc(COc2cccc(N3CCN(Cc4nc5ccc(C(=O)O)cc5n4Cc4cncs4)[C@@H]4C[C@@H]43)n2)c(F)c1 (single isomer, unassigned) [Compound 1, 2-((5-(6-((4-cyano-2-fluorobenzyl)oxy)pyridin-2-yl)-2,5-diazabicyclo[4.1.0]heptan-2-yl)methyl)-1-(thiazol-5-ylmethyl)-1H-benzo[d]imidazole-6-carboxylic Acid] | 34.7 ± 13.7 | 71.8 ± 90.3 | 4.58 | 3.36 | 11.9
N#Cc1ccc(COc2cccc(N3CCN(Cc4nc5ccc(C(=O)O)cc5n4Cc4cncs4)[C@H]4C[C@H]43)n2)c(F)c1 (single isomer, unassigned) [Compound 2, 2-((5-(6-((4-Cyano-2-fluorobenzyl)oxy)pyridin-2-yl)-2,5-diazabicyclo[4.1.0]heptan-2-yl)methyl)-1-(thiazol-5-ylmethyl)-1H-benzo[d]imidazole-6-carboxylic Acid] | 44.1 ± 6.5 | 63.5 ± 11.1 | 2.41 |  | 5.01
N#Cc1ccc(COc2cccc([C@H]3CCN(Cc4nc5ccc(C(=O)O)cc5n4Cc4cncs4)[C@@H]4C[C@H]34)n2)c(F)c1 (single isomer, unassigned) [Compound 4, 2-((5-(6-((4-Cyano-2-fluorobenzyl)oxy)pyridin-2-yl)-2-azabicyclo[4.1.0]heptan-2-yl)methyl)-1-(thiazol-5-ylmethyl)-1H-benzo[d]imidazole-6-carboxylic Acid] | 70 ± 32 | 86.3 ± 27.2 | 0.92 | 2.87 | 14
N#Cc1ccc(COc2ccnc(N3CCN(Cc4nc5ccc(C(=O)O)cc5n4Cc4cncs4)[C@@H]4C[C@@H]43)n2)c(F)c1 [Compound 20, 2-((5-(4-((4-Cyano-2-fluorobenzyl)oxy)pyrimidin-2-yl)-2,5-diazabicyclo[4.1.0]heptan-2-yl)methyl)-1-(thiazol-5-ylmethyl)-1H-benzo[d]imidazole-6-carboxylic Acid] | 15.5 ± 7.15 | 22.9 ± 30 | 0.578 | 6.27 | 6.4
N#Cc1ccc(COc2cccc([C@H]3CCN(Cc4nc5ccc(C(=O)O)cc5n4Cc4cncs4)[C@H]4C[C@@H]34)n2)c(F)c1 (single isomer, unassigned) [Compound 14, 2-((5-(6-((4-Cyano-2-fluorobenzyl)oxy)pyridin-2-yl)-2-azabicyclo[4.1.0]heptan-2-yl)methyl)-1-(thiazol-5-ylmethyl)-1H-benzo[d]imidazole-6-carboxylic Acid] | 59.3 ± 5.68 | 66.8 ± 7.06 | 0.645 | 5.1 | 7.86
N#Cc1ccc(COc2cccc(N3CCN(Cc4nc5ccc(C(=O)O)cc5n4C[C@@H]4CCO4)[C@@H]4C[C@@H]43)n2)c(F)c1 (single isomer, unassigned) [Compound 43] | 64.5 ± 17.8 | 118 ± 10 | 1.19 | 5.65 | 7.09
CC1(c2ccc(C#N)cc2F)Oc2cccc(C3CCN(Cc4nc5ccc(C(=O)O)cc5n4Cc4cncs4)CC3)c2O1 (centres unmarked) [Compound 18] | 89.5 ± 23.6 | 84.9 ± 32.2 | 0.89 | 0.23 | 17.5
CCn1nncc1Cn1c(CN2CCN(c3cccc(OCc4ccc(C#N)cc4F)n3)[C@H]3C[C@H]32)nc2ccc(C(=O)O)cc21 [Compound 45, 2-((5-(6-((4-Cyano-2-fluorobenzyl)oxy)pyridin-2-yl)-2,5-diazabicyclo[4.1.0]heptan-2-yl)methyl)-1-((1-ethyl-1H-1,2,3-triazol-5-yl)methyl)-1H-benzo[d]imidazole-6-carboxylic Acid] | 9.62 | 9.48 |  | 6.2 | 6.46
N#Cc1ccc(COc2cccc([C@@H]3CCN(Cc4nc5ccc(C(=O)O)cc5n4Cc4cncs4)[C@@H]4C[C@@H]43)n2)c(F)c1 (single isomer, unassigned) [Compound 5, 2-((5-(6-((4-Cyano-2-fluorobenzyl)oxy)pyridin-2-yl)-2-azabicyclo[4.1.0]heptan-2-yl)methyl)-1-(thiazol-5-ylmethyl)-1H-benzo[d]imidazole-6-carboxylic Acid] | 282 ± 4.04 | 418 ± 49.6 | 1.31 | 5.37 | 7.46
CC1(c2ccc(C#N)cc2F)Oc2cccc(N3CCN(Cc4nc5ccc(C(=O)O)cc5n4CC4(C#N)CC4)C4CC43)c2O1 (centres unmarked) [Compound 40, 2-((5-(2-(4-Cyano-2-fluorophenyl)-2-methylbenzo[d][1,3]dioxol-4-yl)-2,5-diazabicyclo[4.1.0]heptan-2-yl)methyl)-1-((1-cyanocyclopropyl)methyl)-1H-benzo[d]imidazole-6-carboxylic Acid] | 28.3 ± 6.42 | 44.2 ± 8.62 | 2.78 | 6.85 | 5.86
N#Cc1ccc(COc2cccc([C@@H]3CCN(Cc4nc5ccc(C(=O)O)cc5n4Cc4cncs4)[C@H]4C[C@@H]34)n2)c(F)c1 (single isomer, unassigned) [Compound 15, 2-((5-(6-((4-Cyano-2-fluorobenzyl)oxy)pyridin-2-yl)-2-azabicyclo[4.1.0]heptan-2-yl)methyl)-1-(thiazol-5-ylmethyl)-1H-benzo[d]imidazole-6-carboxylic Acid] | 77.4 ± 16.2 | 71.7 ± 16.1 | 0.597 | 4.33 | 9.24

From US12410163B2, “Compounds as GLP-IR agonists” (Terns Pharmaceuticals, Inc., priority 2022, dated 2025)
